Experimental data taken from patent publication US11718628B2, “SREBP inhibitors comprising a 6-membered central ring” (Capulus Therapeutics, LLC, priority 2018, dated 2023).
Values after ≈ are worked out from the molar mass of the structure shown.

Key:
[1] = Half-life in mouse liver microsomes; format: in vitro ADME; conditions: mouse, liver microsomes, read-out: H: half-life of mouse liver microsomes
Experimental: (§1) Half-life Human Microsomes: Compounds were evaluated for stability in human liver microsomes. A 10 mM stock solution of the compound being evaluated was prepared in DMSO and diluted with water:acetonitrile (1:1) to a concentration of 1 mM. A working concentration of 100 μM was prepared by further dilution with water:acetonitrile (1:1). To make the preincubation mixture, 2.5 μL of the diluted compound was combined with 75 μL of human liver microsomes at 3.33 mg/mL, and 85 μL of 100 mM potassium phosphate buffer, and this mixture was pre-incubated for 10 min at 37° C. To make the 60 minute mixture without cofactor, 32.5 μL of the preincubation mixture was combined with 17.5 μL of 100 mM potassium phosphate buffer and incubated for 60 min at 37° C. To make the 0 min sample with cofactor (NADPH), 16.25 μL of the preincubation mixture was combined with 200 μL of acetonitrile containing internal standard and 8.75 μL of cofactor (NADPH). To make the incubation mixture, 62 μL of cofactor (2.85 mM) was combined with the remaining incubation mixture, and incubated for 60 min at 37° C. To prepare the sample mixture to be evaluated, 25 μL incubation mixture was combined with 200 μL of acetonitrile containing internal standard and vortexed for 5 min at 1200 rpm, then centrifuged for 10 min at 4000 rpm. The supernatant was diluted 2 fold with water and injected on LC-MS/MS. The sample mixture was evaluated by LC-MS/MS using 10 mM ammonium acetate with 0.1% FA as the aqueous mobile phase, and methanol as the organic mobile phase.
Half-life Mouse Microsomes: Compounds were evaluated in mouse liver microsomes following a similar procedure as described above for human liver microsomes. A similar procedure could be used to evaluate compounds in rat liver microsomes.

[2] = Half-life in human liver microsomes; format: in vitro ADME; conditions: human, liver microsomes, NADPH, 37° C., read-out: G: half-life human liver microsomes
Experimental: as §1

Kinetic solubility = format: physicochemical; conditions: aqueous buffer, kinetic from dmso stock, pH 7.4 buffer, room temperature, 1.0% DMSO, read-out: I: kinetic solubility class
Experimental: Kinetic Solubility Procedure: A 10 mM stock solution of a compound was prepared in DMSO, then 4 μL of the stock was added to a deep well plate containing 396 μL of pH 7.4 buffer. The sample plate was vortexed at 800 rpm for 24 h on thermomixer at room temperature. The plate was sealed well during the incubation process. The DMSO content in the sample was 1.0%. The concentration of the evaluated compound in the final incubation was 100 μM. At the end of the incubation period, the sample plate was centrifuged at 4000 rpm for 10 min and analyzed in LC-UV against a calibration curve (CC). Values <10 μg/mL=Low; 10 to 60 μg/mL=Medium; >60 μg/mL=High.

| half-life at 1 µM [1] | half-life at 1 µM [2] | solubility kinetic at 24 h (Kinetic solubility) | SMILES |
| --- | --- | --- | --- |
| 31 h | 2.62 min | 10 to 60 µg/mL (≈ 22.2 to 133 µM) | CC(C)(C)c1cc(-c2cncc(-c3cc(C(=O)N4CCC(O)CC4)ccc3Cl)c2)ccn1 |
| 2.95 h | 1.69 min | 10 to 60 µg/mL (≈ 23.6 to 142 µM) | Cc1cc(S(=O)(=O)NC(C)C)ccc1-c1cncc(-c2ccnc(C(C)(C)C)c2)c1 |
| 2.97 h | 27.3 min | 10 to 60 µg/mL (≈ 21.8 to 131 µM) | CC(C)NS(=O)(=O)Nc1ccc(-c2cncc(-c3ccnc(C(C)(C)C)c3)c2)c(Cl)c1 |
| 0.425 h | 11.3 min | < 10 µg/mL | Cc1c(-c2ccnc(C(C)(C)C)c2)cncc1-c1ccc(C(=O)N2CCCC(O)C2)cc1Cl (stereo not drawn) |
| 0.163 h | 2.98 min | 10 to 60 µg/mL (≈ 21.5 to 129 µM) | CC(C)(CNC(=O)c1ccc(-c2cncc(-c3ccnc(C(C)(C)C)c3)c2)c(Cl)c1)C(=O)O |
| 0.563 h | 11.4 min | 10 to 60 µg/mL (≈ 20 to 120 µM) | CC(C)(C)c1cc(-c2cc(-c3ccc(C(=O)N4CCC(O)CC4)cc3Cl)cc3cnccc23)ccn1 |
| 1.8 h | 119 min | 10 to 60 µg/mL (≈ 20 to 120 µM) | CC(C)(C)c1cc(-c2cc(-c3ccc(C(=O)N4CCC(O)CC4)cc3Cl)c3ccncc3c2)ccn1 |
| 18.2 h | 1.78 min | < 10 µg/mL | CC(C)(C)c1cc(-c2cncc(-c3ccc(NC(=O)OC4CCNCC4)cc3Cl)c2)ccn1 |
| 1.68 h | 9.74 min | 10 to 60 µg/mL (≈ 20.8 to 125 µM) | CC1(c2cc(-c3cncc(-c4ccc(C(=O)N5CCC(O)CC5)cc4Cl)c3)ccn2)OCCO1 |
| 0.17 h | 19 min | < 10 µg/mL | CC(C)(C)c1cc(-c2cc(-c3ccc(C(=O)N4CCC(O)CC4)cc3Cl)cc3ncccc23)ccn1 |
| 0.322 h | 2.07 min | < 10 µg/mL | CC(C)(C)c1cc(-c2cc(-c3ccc(C(=O)N4CCC(O)CC4)cc3Cl)c3cccnc3c2)ccn1 |
| 0.325 h | 3.21 min | 10 to 60 µg/mL (≈ 21.6 to 129 µM) | Cc1c(-c2ccnc(C(C)(C)C)c2)cncc1-c1ccc(C(=O)N2CCC(O)CC2)cc1Cl |
| 0.227 h | 20.7 min | < 10 µg/mL | CN(C)c1cc(-c2ccnc(C(C)(C)C)c2)cc(-c2ccc(C(=O)N3CCC(O)CC3)cc2Cl)c1 |
| 1.98 h | 16.1 min | < 10 µg/mL | CC(C)(C)c1cc(-c2cc(C#N)cc(-c3ccc(C(=O)N4CCC(O)CC4)cc3Cl)c2)ccn1 |
| 0.227 h | 74.6 min | < 10 µg/mL | CC(C)(C)c1cc(-c2cc(F)cc(-c3ccc(C(=O)N4CCC(O)CC4)cc3Cl)c2)ccn1 |
| 0.457 h | 9.79 min | 10 to 60 µg/mL (≈ 23 to 138 µM) | O=C(c1ccc(-c2cncc(-c3ccnc4c3CCC4)c2)c(Cl)c1)N1CCC(O)CC1 |
| 2 h | 31.3 min | < 10 µg/mL | CC(C)(C)c1cc(-c2cncc(-c3ccc(NC(=O)OC4CCC(O)CC4)cc3Cl)c2)ccn1 (stereo not drawn) |
| 0.333 h | 3.17 min | 10 to 60 µg/mL (≈ 22.3 to 134 µM) | CC(C)(C)c1cc(-c2cncc(-c3ccc(C(=O)N4CC5C(O)C5C4)cc3Cl)c2)ccn1 (stereo not drawn) |
| > 2 h | 19.6 min | < 10 µg/mL | CC(C)(C)c1cc(-c2cncc(-c3ccc(NC(=O)N4CCC(O)CC4)cc3Cl)c2)ccn1 |
| 0.915 h | 36.5 min | 10 to 60 µg/mL (≈ 23 to 138 µM) | O=C(c1ccc(-c2cncc(-c3ccnc(C4CC4)c3)c2)c(Cl)c1)N1CCC(O)CC1 |
| > 2 h | 6.03 min | < 10 µg/mL | CC(C)(C)c1cc(-c2cncc(-c3ccc(NS(=O)(=O)CC(F)(F)F)cc3Cl)c2)ccn1 |

| half-life at 1 µM [1] | half-life at 1 µM [2] | solubility kinetic at 24 h (Kinetic solubility) | SMILES |
| --- | --- | --- | --- |
| 1.06 h | 10 min | 10 to 60 µg/mL (≈ 20.9 to 125 µM) | CC1(O)CCC(C(=O)c2ccc(-c3cncc(-c4ccnc(C(C)(C)CO)c4)c3)c(Cl)c2)CC1 (stereo not drawn) |
| > 2 h | 6.5 min | < 10 µg/mL | CC(C)(CO)c1cc(-c2cncc(-c3ccc(NS(C)(=O)=O)cc3Cl)c2)ccn1 |
| 1.46 h | 21.5 min | < 10 µg/mL | CC(C)OC(=O)Nc1ccc(-c2cncc(-c3ccnc(C(C)(C)CO)c3)c2)c(Cl)c1 |
| 0.355 h | 15.4 min | < 10 µg/mL | CC(C)(C)c1cc(-c2cncc(-c3ccc(C(=O)N4CC5CCC(C4)C5O)cc3Cl)c2)ccn1 (stereo not drawn) |
| 1.26 h | 29.4 min | 10 to 60 µg/mL (≈ 22.1 to 133 µM) | CC(C)(C)c1cc(-c2cncc(-c3ccc(C(=O)N4CC(O)C(O)C4)cc3Cl)c2)ccn1 (stereo not drawn) |
| 0.603 h | 27.1 min | 10 to 60 µg/mL (≈ 22.1 to 133 µM) | CC(C)(C)c1cc(-c2cncc(-c3ccc(C(=O)N4C[C@@H](O)[C@@H](O)C4)cc3Cl)c2)ccn1 |
| 0.442 h | 1.74 min | 10 to 60 µg/mL (≈ 22.9 to 138 µM) | CC(C)(C)c1cc(-c2cncc(-c3ccc(C(=O)N4CC(CO)C4)cc3Cl)c2)ccn1 |
| 0.638 h | 2.01 min | 10 to 60 µg/mL (≈ 23.7 to 142 µM) | CC(C)(C)c1cc(-c2cncc(-c3ccc(C(=O)N4CC(O)C4)cc3Cl)c2)ccn1 |
| 1.35 h | 0.54 min | 10 to 60 µg/mL (≈ 20.5 to 123 µM) | CC(C)(C)c1cc(-c2cccc(-c3ccc(NS(=O)(=O)C(F)(F)F)cc3Cl)c2F)ccn1 |
| 1.83 h | 90.8 min | < 10 µg/mL | CC(C)(C)c1cc(-c2cccc(-c3ccc(NS(C)(=O)=O)cc3Cl)c2)ccn1 |
| 3.43 h | 16.4 min | < 10 µg/mL | CC(C)(C)c1cc(-c2cccc(-c3ccc(NS(C)(=O)=O)cc3Cl)c2F)ccn1 |
| 0.672 h | 16.3 min | < 10 µg/mL | CC(C)(C)c1cc(-c2cccc(-c3ccc(C(=O)N4CCC(O)CC4)cc3Cl)c2F)ccn1 |
| 1.11 h | 12.1 min | 10 to 60 µg/mL (≈ 21.3 to 128 µM) | CC(C)(C)c1cc(-c2cccc(-c3ccc(C(=O)NS(=O)(=O)C4CC4)cc3Cl)c2)ccn1 |
| > 2 h | > 120 min | < 10 µg/mL | CC(C)(C)c1cc(-c2cccc(-c3ccc(NS(=O)(=O)CC(F)(F)F)cc3Cl)c2)ccn1 |
| 6.67 h | 72.1 min | < 10 µg/mL | CC(C)(C)c1cc(-c2cccc(-c3ccc(NC(=O)N4CCC(O)CC4)cc3Cl)c2)ccn1 |
| 1.38 h | 126 min | 10 to 60 µg/mL (≈ 23.1 to 138 µM) | CC(C)(C)c1cc(-c2cncc(-c3ccc(C(=O)N4CCC(O)CC4)cc3)c2F)ccn1 [drawing 321] |
| 3.55 h | 13.9 min | 10 to 60 µg/mL (≈ 23.3 to 140 µM) | Cc1cc(C(=O)N2CCC(O)CC2)ccc1-c1cncc(-c2ccnc(C(C)(C)C)c2)c1 [drawing 337] |
| 0.993 h | 19.8 min | < 10 µg/mL | CC(C)(C)c1cc(-c2cncc(-c3ccc(NS(C)(=O)=O)cc3Cl)c2)ccn1 [drawing 346] |
| 48.7 h | 541 min | 10 to 60 µg/mL (≈ 22.1 to 133 µM) | CC(C)(O)c1cc(-c2cncc(-c3ccc(C(=O)N4CCC(O)CC4)cc3Cl)c2)ccn1 [drawing 356] |
| 0.19 h | 5.81 min | 10 to 60 µg/mL (≈ 21.6 to 129 µM) | CC1(O)CCCN(C(=O)c2ccc(-c3cncc(-c4ccnc(C(C)(C)C)c4)c3)c(Cl)c2)C1 (stereo not drawn) [drawing 366] |
| 0.505 h | 13 min | 10 to 60 µg/mL (≈ 21.6 to 129 µM) | CC1(O)CCN(C(=O)c2ccc(-c3cncc(-c4ccnc(C(C)(C)C)c4)c3)c(Cl)c2)CC1 [drawing 369] |

| SMILES | half-life at 1 µM [1] | half-life at 1 µM [2] | solubility kinetic at 24 h (Kinetic solubility) |
| --- | --- | --- | --- |
| CC(C)OC(=O)Nc1ccc(-c2cncc(-c3ccnc(C4OCCO4)c3)c2)c(Cl)c1 [drawing 371] | 0.32 h | 13.5 min | < 10 µg/mL |
| CC(C)OC(=O)Nc1ccc(-c2cncc(-c3ccnc(C(C)(C)C)c3)c2)c(Cl)c1 [drawing 372] | 3.7 h | 69.9 min | < 10 µg/mL |
